This note sets out measurements from PubChem BioAssay (NCI).

“And” between values parts separate entries of the source, which are not always exact repeats. Equal entries are not always repeated.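 Results reflect a 48-hour exposure of cells in 96-well plates to compound at five concentrations. Here, GI50 denotes the concentration required for 50% inhibition of growth. TGI marks complete inhibition of growth.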 Bounds are passed on as bounds.

In general, TGI refers to the concentration at which net growth stops. Higher therefore signals less potent growth arrest. For orientation: GI50 means the concentration at which growth is held to half of that of the control.

In the first experiment the test system is COLO 205 colon. Description: DTP human tumour cell line panel, 48 h.
`Clc1ccc(CCN(CCc2ccc(Cl)c(Cl)c2)CCN2CCCC2)cc1Cl`: the total growth inhibition concentration (TGI) turned out to be 3.48 µM. That is a single-digit micromolar value.
`CC(C)(C)C1=C(Br)C(C(C)(C)C)OP1(=O)O` (stereo not given) showed a total growth inhibition concentration (TGI) above 100 µM.
`ONC1=Nc2cc(Cl)ccc2C(=S)N2CSCC12` (stereo not given) showed a concentration for total growth inhibition (TGI) above 100 µM.
Still for that read-out and setting: the figure for `CC(C)NC(=O)OCc1c2c(n(C)c1COC(=O)NC(C)C)-c1cc(Cl)c(Cl)cc1CC2` is 73.6 µM.
`CNC1(c2cc3ccccc3s2)CCCCC1`: the TGI stood at 41.9 µM.
The compound `CNc1ncccc1Nc1cc(=O)n2c3cccnc3n(C)c2c1` registered a TGI above 100 µM.
The compound `CC(C)CCNC(=O)c1ccc(CNC(=O)/C=C/c2cccc(Oc3ccccc3)c2)cc1` came in with a TGI above 100 µM.
On the same count and under the same terms, the figure for `COc1ccc2nc(N/N=C/c3sccc3C)cc(C)c2c1` is 32.7 µM; for `O=c1[nH]c2cc(C(F)(F)F)ccc2nc1C(F)(F)F` it is above 100 µM.
`O=C1/C(=C\c2ccc([N+](=O)[O-])cc2)N(S(=O)(=O)c2ccccc2)c2ncccc21`: the total growth inhibition concentration (TGI) was 56.8 µM.
Compound `C=CCCON(C(=O)OC(C)(C)C)c1ccccc1` yielded a concentration for total growth inhibition (TGI) above 100 µM.
Still for that read-out and setting: the figure for `Nc1cc([N+](=O)[O-])ccc1C(=O)N1CCC[C@H]1CO` is above 100 µM; for `CCOC(=O)Nc1cc2c(c(N)n1)N=C(c1ccc(OC)cc1)CN2` it is 0.196 µM and 0.146 µM.
As to `C#CCn1c(=O)c(I)cn(/C(=C/C(=O)OCC)C(=O)OCC)c1=O`, the TGI is 2.94 µM.
Regarding `C[C@@H](C(=O)O)N1C(c2ccco2)=C(/C(C=O)=C\c2ccco2)C(=O)/C1=C\c1ccco1`, the concentration for total growth inhibition (TGI) is above 100 µM.
On the same count and under the same terms, the figure for `O=C(/C=C/c1ccc(O)c(O)c1)OCC(OC(=O)/C=C/c1ccc(O)c(O)c1)C(=O)O` (stereo not given) is above 100 µM; for `COc1ccc(CC2COc3cc(OC)cc(OC)c3C2=O)cc1` (stereo not given) it is 31.1 µM; for `COc1ccc(-c2c(C(C)=O)c(-c3ccccc3)n(C3OC(CO)C(O)C(O)C3O)c(=S)c2C#N)cc1` (stereo not given) it is above 100 µM.
Compound `O=C1C2=Cc3ccccc3OC2(O)Oc2cc3ccccc3cc21` (stereo not given) returned a total growth inhibition concentration (TGI) above 100 µM.

A further experiment deals with EKVX NSCLC. Description: DTP human tumour cell line panel, 48 h.
Regarding `Clc1ccc(CCN(CCc2ccc(Cl)c(Cl)c2)CCN2CCCC2)cc1Cl`, the TGI was 4.4 µM.
For the compound `CC(C)(C)C1=C(Br)C(C(C)(C)C)OP1(=O)O` (stereo not given), the concentration for total growth inhibition (TGI) is above 100 µM.
As to `Cc1cccc(Cl)c1NCC(O)CN1CCN(C)CC1` (stereo not given), the TGI was above 100 µM.
In turn, `ONC1=Nc2cc(Cl)ccc2C(=S)N2CSCC12` (stereo not given) had a total growth inhibition concentration (TGI) above 100 µM.
In turn, `CC(C)NC(=O)OCc1c2c(n(C)c1COC(=O)NC(C)C)-c1cc(Cl)c(Cl)cc1CC2` returned a TGI above 100 µM.
Consider `CNC1(c2cc3ccccc3s2)CCCCC1`, for which the concentration for total growth inhibition (TGI) came to 93.8 µM.
On the same count and under the same terms, the figure for `CNc1ncccc1Nc1cc(=O)n2c3cccnc3n(C)c2c1` is above 100 µM.
Take `CC(C)CCNC(=O)c1ccc(CNC(=O)/C=C/c2cccc(Oc3ccccc3)c2)cc1`: the TGI is above 100 µM.
Compound `COc1ccc2nc(N/N=C/c3sccc3C)cc(C)c2c1` came in with a TGI of 55.4 µM.
In the case of `O=c1[nH]c2cc(C(F)(F)F)ccc2nc1C(F)(F)F`, the total growth inhibition concentration (TGI) was above 100 µM.
As for `C=CCCON(C(=O)OC(C)(C)C)c1ccccc1`, the TGI was above 100 µM.
In the case of `Nc1cc([N+](=O)[O-])ccc1C(=O)N1CCC[C@H]1CO`, the concentration for total growth inhibition (TGI) was above 100 µM.
For `CCOC(=O)Nc1cc2c(c(N)n1)N=C(c1ccc(OC)cc1)CN2`, the TGI is above 100 µM.
For `C#CCn1c(=O)c(I)cn(/C(=C/C(=O)OCC)C(=O)OCC)c1=O`, the TGI was determined as 10.2 µM.
In turn, `C[C@@H](C(=O)O)N1C(c2ccco2)=C(/C(C=O)=C\c2ccco2)C(=O)/C1=C\c1ccco1` registered a TGI above 100 µM.
`O=C(/C=C/c1ccc(O)c(O)c1)OCC(OC(=O)/C=C/c1ccc(O)c(O)c1)C(=O)O` (stereo not given) showed a total growth inhibition concentration (TGI) above 100 µM.
Compound `COc1ccc(CC2COc3cc(OC)cc(OC)c3C2=O)cc1` (stereo not given) returned a TGI of 77.8 µM. This lies in the double-digit micromolar range.
The same measure, in the same setting: then `COc1ccc(-c2c(C(C)=O)c(-c3ccccc3)n(C3OC(CO)C(O)C(O)C3O)c(=S)c2C#N)cc1` (stereo not given), with above 100 µM.
Take `O=C1C2=Cc3ccccc3OC2(O)Oc2cc3ccccc3cc21` (stereo not given): the TGI is above 100 µM.

Another experiment has as its system HCC-2998 colon. Description: DTP human tumour cell line panel, 48 h.
In the case of `Clc1ccc(CCN(CCc2ccc(Cl)c(Cl)c2)CCN2CCCC2)cc1Cl`, the TGI is 3.19 µM.
In turn, `CC(C)(C)C1=C(Br)C(C(C)(C)C)OP1(=O)O` (stereo not given) displayed a TGI above 100 µM.
As for `Cc1cccc(Cl)c1NCC(O)CN1CCN(C)CC1` (stereo not given), the concentration for total growth inhibition (TGI) is above 100 µM.
The compound `ONC1=Nc2cc(Cl)ccc2C(=S)N2CSCC12` (stereo not given) returned a concentration for total growth inhibition (TGI) above 100 µM.
The compound `CC(C)NC(=O)OCc1c2c(n(C)c1COC(=O)NC(C)C)-c1cc(Cl)c(Cl)cc1CC2` returned a TGI of 32.7 µM.
Still for that read-out and setting: the figure for `CNC1(c2cc3ccccc3s2)CCCCC1` is 28.7 µM; for `CNc1ncccc1Nc1cc(=O)n2c3cccnc3n(C)c2c1` it is above 100 µM.
In turn, `CC(C)CCNC(=O)c1ccc(CNC(=O)/C=C/c2cccc(Oc3ccccc3)c2)cc1` registered a TGI above 100 µM.
`COc1ccc2nc(N/N=C/c3sccc3C)cc(C)c2c1` gave a TGI of 41.2 µM.
Compound `O=c1[nH]c2cc(C(F)(F)F)ccc2nc1C(F)(F)F` registered a TGI above 100 µM.
As for `CCOC(=O)Nc1cc2c(c(N)n1)N=C(c1ccc(OC)cc1)CN2`, the GI50 is 0.0185 µM and the total growth inhibition concentration (TGI) turned out to be 0.178 µM.
On to `O=C(/C=C/c1ccc(O)c(O)c1)OCC(OC(=O)/C=C/c1ccc(O)c(O)c1)C(=O)O` (stereo not given), for which the concentration for total growth inhibition (TGI) was above 100 µM.
`COc1ccc(-c2c(C(C)=O)c(-c3ccccc3)n(C3OC(CO)C(O)C(O)C3O)c(=S)c2C#N)cc1` (stereo not given) came in with a concentration for total growth inhibition (TGI) above 100 µM.
In the case of `O=C1C2=Cc3ccccc3OC2(O)Oc2cc3ccccc3cc21` (stereo not given), the TGI was 74.9 µM.

A further experiment has as its system HL-60(TB) leukemia. Description: DTP human tumour cell line panel, 48 h.
Compound `Clc1ccc(CCN(CCc2ccc(Cl)c(Cl)c2)CCN2CCCC2)cc1Cl` gave a total growth inhibition concentration (TGI) of 3.25 µM. This counts as single-digit micromolar.
Compound `CC(C)(C)C1=C(Br)C(C(C)(C)C)OP1(=O)O` (stereo not given) gave a concentration for total growth inhibition (TGI) above 100 µM.
The compound `COc1ccc2nc(N/N=C/c3sccc3C)cc(C)c2c1` showed a concentration for total growth inhibition (TGI) of 47.6 µM.
As to `O=C1/C(=C\c2ccc([N+](=O)[O-])cc2)N(S(=O)(=O)c2ccccc2)c2ncccc21`, the TGI worked out at 5.4 µM.
For the compound `C=CCCON(C(=O)OC(C)(C)C)c1ccccc1`, the total growth inhibition concentration (TGI) was above 100 µM.
The same measure, in the same setting: then `Nc1cc([N+](=O)[O-])ccc1C(=O)N1CCC[C@H]1CO`, with above 100 µM; and `CCOC(=O)Nc1cc2c(c(N)n1)N=C(c1ccc(OC)cc1)CN2`, with 0.00595 µM.
In turn, `C#CCn1c(=O)c(I)cn(/C(=C/C(=O)OCC)C(=O)OCC)c1=O` had a TGI of 3.89 µM.
Same read-out and setting: then `C[C@@H](C(=O)O)N1C(c2ccco2)=C(/C(C=O)=C\c2ccco2)C(=O)/C1=C\c1ccco1`, with above 100 µM.
In turn, `COc1ccc(CC2COc3cc(OC)cc(OC)c3C2=O)cc1` (stereo not given) yielded a TGI above 100 µM.
Consider `COc1ccc(-c2c(C(C)=O)c(-c3ccccc3)n(C3OC(CO)C(O)C(O)C3O)c(=S)c2C#N)cc1` (stereo not given), for which the TGI was above 100 µM.

Another experiment concerns LOX IMVI melanoma. Description: DTP human tumour cell line panel, 48 h.
`Clc1ccc(CCN(CCc2ccc(Cl)c(Cl)c2)CCN2CCCC2)cc1Cl` returned a TGI of 2.95 µM. This lies in the single-digit micromolar range.
`CC(C)(C)C1=C(Br)C(C(C)(C)C)OP1(=O)O` (stereo not given) displayed a TGI above 100 µM.
`Cc1cccc(Cl)c1NCC(O)CN1CCN(C)CC1` (stereo not given) registered a TGI above 100 µM.
With `ONC1=Nc2cc(Cl)ccc2C(=S)N2CSCC12` (stereo not given), the TGI is above 100 µM.
On to `CC(C)NC(=O)OCc1c2c(n(C)c1COC(=O)NC(C)C)-c1cc(Cl)c(Cl)cc1CC2`, for which the TGI is above 100 µM.
Take `CNC1(c2cc3ccccc3s2)CCCCC1`: the TGI came out at 40.9 µM.
